# Measured values: US9540362B2, “Sphingosine-1-phosphate receptor agonists, methods of preparing the same, and pharmaceutical compositions containing the same as an active agent” (LG LIFE SCIENCES LTD., priority 2013, dated 2017)
# Counter-ions that a name gives are not always drawn.
# Assays:
# [1] = system: lymphocytes in blood; test: Rat peripheral blood lymphocyte decrease; type: in vivo; conditions: male SD rat, 6 hours after administration
# Description: Evaluation of Rat Peripheral Blood Lymphocyte Decrease
# Lymphocyte decrease in blood by S1P1 agonist was evaluated using a male SD rat. After adapting a rat weighing about 250 g to a breeding facility for one week, a test compound was administered to it once. At 3 hours, 6 hours, 24 hours and 48 hours after administration, blood was taken from a tail caudal vein, and about 200 μl of the blood was put into an EDTA tube while preventing it from clotting, followed by measurement of the number of lymphocytes in blood. The number of lymphocytes was analyzed by a hematological examination device, Hemoanalyzer. The doses of the test compounds were 3 mg/kg for Example 52, 94, 108, 117, 142, 145, 146, 148 and 149 compounds, and 1 mg/kg for Example 150, 151, 153, 154, 155, 158, 159 and 161 compounds.
# [2] = molecular target: human sphingosine-1-phosphate 1 receptor (S1P1 receptor) (Homo sapiens, UniProt P21453); test: Ca2+ inducing ability using CHO cells overexpressing human S1P1 receptor (Calcium 5 assay kit); type: cell-based; conditions: CHO cells overexpressing human S1P1, calcium RFU; S1P 1 μM = 100%
# Source text: Evaluation of Ca^2+ inducing ability of test compound using a cell line expressing human sphingosine-1-phosphate
# CHO (Chinese hamster ovary) cells which overexpress human sphingosine-1-phosphate 1 receptor (S1P1 receptor) that react with sphingosine-1-phosphate (S1P) are used for a functional test method wherein an increase of calcium indicates a therapeutic efficacy of an agonist compound.
# To prepare CHO cells which overexpress human S1P1˜S1P5, human clones for each subtype having HA at the N terminal residue (S1P1: EDG010TN00, S1P2: EDG020TN00, S1P3: EDG030TN00, S1P4: EDG060TN00, S1P5: EDG080TN00) were purchased from the Missouri S&T cDNA Resource Center and co-transfected with G-protein alpha subunit (G-alpha-16) into CHO-K1 cells.
# A calcium measurement kit (Calcium 5 assay kit, Molecular Devices) was used to select an agonist compound. The principle of calcium measurement is that calcium-sensitive dyes are applied to cells, they enter into the cytoplasm of the cells during incubation, and when a ligand binds to a certain receptor to release calcium into the cytoplasm, the dyes bind to said calcium to induce fluorescence which is measured. This test method can sensitively measure only the intracellular calcium concentration change because any change that may occur outside the cells is masked by a masking dye.
# The experimental procedure was as follows. One day before calcium measurement, CHO cells overexpressing hS1P1˜hS1P5 were dispensed into a 96-well plate (bottom clear black well) in 3×10^4 cells per well and cultured at 37° C. under 5% carbon dioxide condition for one day. 100 μl of calcium dyes mixed with Assay Buffer (1×HBSS, 20 mM HEPES, 2.5 mM probenecid, pH 7.4) were dispensed into culture solution in well and cultured at 37° C. for one hour. Test compounds were dissolved in 100% DMSO to prepare 1 μl solution per each concentration, and each solution was mixed with 199 μl Assay Buffer such that the concentrations were 50, 5, 0.5, 0.05, 0.005 and 0.0005 μM. The plate cultured with the calcium dyes was put into FlaxstationII (Molecular Devices), and the prepared test compounds (the final concentrations of the test compounds: 10, 1, 0.1, 0.01, 0.001 and 0.0001 μM) were programmed to be automatically inoculated in 50 μl per each well. For a total of 90 seconds, RFU (relative fluorescence unit) values were measured. The value of Reference (S1P substance 1 μM) deducting the blank value was set as 100%, and EC50 values of the test compounds were calculated by prism.
# Sequence of human sphingosine-1-phosphate 1 receptor (S1P1 receptor) (P21453 whole entry): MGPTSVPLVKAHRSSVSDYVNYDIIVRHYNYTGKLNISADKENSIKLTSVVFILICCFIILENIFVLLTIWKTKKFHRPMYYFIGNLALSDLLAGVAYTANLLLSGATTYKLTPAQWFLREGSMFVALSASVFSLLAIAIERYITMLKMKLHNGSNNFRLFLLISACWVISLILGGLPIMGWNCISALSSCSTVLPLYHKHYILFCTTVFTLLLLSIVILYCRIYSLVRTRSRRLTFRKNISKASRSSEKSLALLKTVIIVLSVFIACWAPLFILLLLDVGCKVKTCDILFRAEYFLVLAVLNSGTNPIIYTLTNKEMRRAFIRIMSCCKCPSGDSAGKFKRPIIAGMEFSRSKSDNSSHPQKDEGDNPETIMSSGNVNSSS
EC50 [2] [nM],SMILES,"Lymphocyte count (degree of decrease in lymphocyte number) ([1]; administered once, 3 mg/kg) [%]","Lymphocyte count (degree of decrease in lymphocyte number) ([1]; administered once, 1 mg/kg) [%]",Lymphocyte count (degree of decrease in lymphocyte number) ([1]; dose of the reference not stated) [%]
19,"CC1=C(CN2CCC(C(=O)O)CC2)CCc2cc(OCc3ccc4c(c3)c(Cl)nn4C(C)C)ccc21 [Example 148, 1-[6-(3-chloro-1-isopropyl-1H-indazol-5-ylmethoxy)-1-methyl-3,4-dihydro-naphthalen-2-ylmethyl]-piperidine-4-carboxylic acid]",−81,–,–
25,"CC(C)n1ccc2cc(-c3nc(-c4ccc(CN5CC(C(=O)O)C5)cc4)no3)ccc21 [Example 2, 1-{4-[5-(1-isopropyl-1H-indol-5-yl)-[1,2,4]oxadiazol-3-yl]-benzyl}-azetidine-3-carboxylic acid]",–,–,–
11,"CC(C)n1nc(Cl)c2cc(COc3ccc4c(c3)CCC(CN3CCC(C(=O)O)CC3)=C4Cl)ccc21 [Example 153, 1-[1-chloro-6-(3-chloro-1-isopropyl-1H-indazol-5-ylmethoxy)-3,4-dihydro-naphthalen-2-ylmethyl]-piperidine-4-carboxylic acid]",–,−80,–
23,"Cc1cc(CN2CC(C(=O)O)C2)ccc1-c1noc(-c2ccc3c(c2)c(Cl)cn3C(C)C)n1 [Example 3, 1-{4-[5-(3-chloro-1-isopropyl-1H-indol-5-yl)-[1,2,4]oxadiazol-3-yl]-3-methyl-benzyl}-azetidine-3-carboxylic acid]",–,–,–
–,"CCCCCCCCc1ccc(CCC(N)(CO)CO)cc1 [FTY-720, Fingolimod, reference compound]",–,–,−80
7,"CC(C)n1nc(Cl)c2cc(COc3ccc4cc(CN5CC(C(=O)O)C5)ccc4c3)ccc21 [Example 142, 1-[6-(3-chloro-1-isopropyl-1H-indazol-5-ylmethoxy)-naphthalen-2-ylmethyl]-azetidine-3-carboxylic acid]",−80,–,–
3,"CC(C)n1nc(Cl)c2cc(COc3ccc4c(c3)CCC(CN3CCC(F)(C(=O)O)C3)=C4Cl)ccc21 (stereo not shown) [Example 161, 1-[1-chloro-6-(3-chloro-1-isopropyl-1H-indazol-5-ylmethoxy)-3,4-dihydro-naphthalen-2-ylmethyl]-3-fluoro-pyrrolidine-3-carboxylic acid]",–,−65,–
23,"Cc1cc(CN2CC(C(=O)O)C2)ccc1-c1noc(-c2ccc3c(c2)c(C#N)cn3C(C)C)n1 [Example 4, 1-{4-[5-(3-cyano-1-isopropyl-1H-indol-5-yl)-[1,2,4]oxadiazol-3-yl]-3-methyl-benzyl}-azetidine-3-carboxylic acid]",–,–,–
20,"Cc1c(-c2noc(-c3ccc4c(c3)c(Cl)cn4C(C)C)n2)ccc2c1CCN(CC(=O)O)C2 [Example 58, {6-[5-(3-chloro-1-isopropyl-1H-indol-5-yl)-[1,2,4]oxadiazol-3-yl]-5-methyl-3,4-dihydro-1H-isoquinolin-2-yl}-acetic acid, hydrochloride]",–,–,–
14,"Cc1cc(CN2CC(C(=O)O)C2)ccc1-c1noc(-c2ccc3c(ccn3C(C)C)c2)n1 [Example 5, 1-{4-[5-(1-isopropyl-1H-indol-5-yl)-[1,2,4]oxadiazol-3-yl]-3-methyl-benzyl}-azetidine-3-carboxylic acid]",–,–,–
3,"Cc1c(-c2noc(-c3ccc4c(c3)c(C)nn4C(C)C)n2)ccc2c1CCN(CC(=O)O)C2 [Example 117, {6-[5-(1-isopropyl-3-methyl-1H-indazol-5-yl)-[1,2,4]oxadiazol-3-yl]-5-methyl-3,4-dihydro-1H-isoquinolin-2-yl}-acetic acid, trifluoroacetate]",−80,–,–
10,"Cc1c(-c2noc(-c3ccc4c(cnn4C(C)C)c3)n2)ccc2c1CCN(CC(=O)O)C2 [Example 85, {6-[5-(1-isopropyl-1H-indazol-5-yl)-[1,2,4]oxadiazol-3-yl]-5-methyl-3,4-dihydro-1H-isoquinolin-2-yl}-acetic acid, trifluoroacetate]",–,–,–
50,"CC(C)n1ccc2cc(-c3nc(-c4cccc5c4CCCC5NS(N)(=O)=O)no3)ccc21 (stereo not shown) [Example 38, N-{5-[5-(1-isopropyl-1H-indol-5-yl)-[1,2,4]oxadiazol-3-yl]-1,2,3,4-tetrahydro-naphthalen-1-yl}-sulfamide]",–,–,–
20,"CC(C)n1nc(Cl)c2cc(-c3nc(-c4cccc5c4CCN(S(N)(=O)=O)C5)no3)ccc21 [Example 108, 5-[5-(3-chloro-1-isopropyl-1H-indazol-5-yl)-[1,2,4]oxadiazol-3-yl]-3,4-dihydro-1H-isoquinoline-2-sulfonic acid amide]",−70,–,–
50,"Cc1cc(C(C)CC(=O)O)ccc1-c1noc(-c2ccc3c(c2)c(Cl)nn3C(C)C)n1 (stereo not shown) [Example 129, 3-{4-[5-(3-chloro-1-isopropyl-1H-indazol-5-yl)-[1,2,4]oxadiazol-3-yl]-3-methyl-phenyl}-butyric acid, trifluoroacetate]",–,–,–
50,"Cc1c(-c2noc(-c3ccc4nn(C(C)C)cc4c3)n2)ccc2c1CCN(CC(=O)O)C2 [Example 97, {6-[5-(2-isopropyl-2H-indazol-5-yl)-[1,2,4]oxadiazol-3-yl]-5-methyl-3,4-dihydro-1H-isoquinolin-2-yl}-acetic acid, trifluoroacetate]",–,–,–
11,"CC(C)n1nc(Cl)c2cc(COc3ccc4c(c3)CCC(CN3CC[C@@H](C(=O)O)C3)=C4Cl)ccc21 [Example 151, (R)-1-[1-chloro-6-(3-chloro-1-isopropyl-1H-indazol-5-ylmethoxy)-3,4-dihydro-naphthalen-2-ylmethyl]-pyrrolidine-3-carboxylic acid]",–,−80,–
2,"Cc1c(CN2CC(C(=O)O)C2)cccc1-c1noc(-c2ccc3c(ccn3C(C)C)c2)n1 [Example 26, 1-{3-[5-(1-isopropyl-1H-indol-5-yl)-[1,2,4]oxadiazol-3-yl]-2-methyl-benzyl}-azetidine-3-carboxylic acid]",–,–,–
8,"CC(C)n1nc(Cl)c2cc(COc3ccc4c(c3)CCC(CN3CCC(C(=O)O)C3)=C4Cl)ccc21 (stereo not shown) [Example 150, 1-[1-chloro-6-(3-chloro-1-isopropyl-1H-indazol-5-ylmethoxy)-3,4-dihydro-naphthalen-2-ylmethyl]-pyrrolidine-3-carboxylic acid]",–,−82,–
27,"CC(C)n1nc(Cl)c2cc(COc3ccc4c(c3)CCC(CN3CCCC(C(=O)O)C3)=C4Cl)ccc21 (stereo not shown) [Example 155, 1-[1-chloro-6-(3-chloro-1-isopropyl-1H-indazol-5-ylmethoxy)-3,4-dihydro-naphthalen-2-ylmethyl]-piperidine-3-carboxylic acid]",–,−75,–
19,"CCC(C)n1nc(Cl)c2cc(COc3ccc4c(c3)CCC(CN3CCC(C(=O)O)CC3)=C4Cl)cnc21 (stereo not shown) [Example 160, 1-[6-(1-sec-butyl-3-chloro-1H-pyrazolo[3,4-b]pyridin-5-ylmethoxy)-1-chloro-3,4-dihydro-naphthalen-2-ylmethyl]-piperidine-4-carboxylic acid]",–,–,–
5,"Cc1cc(CCC(=O)O)ccc1-c1noc(-c2ccc3c(ccn3C(C)C)c2)n1 [Example 1, 3-{4-[5-(1-isopropyl-1H-indol-5-yl)-[1,2,4]oxadiazol-3-yl]-3-methyl-phenyl}-propanoic acid]",–,–,–
